Assay results as given in patent US20090030086A1, “ANTIMICROBIAL AGENTS” (priority 2005, published 2009).
≈ marks a conversion by molar mass, not a printed value. Like-named read-outs stand apart in the source and are kept apart here.

What was measured:
S. aureus ATCC 29213 [1] = assay: Supplemented disc diffusion assay; assay type: cell-based, Staphylococcus aureus; conditions: Staphylococcus aureus, ATCC29213, 24 h
Procedure: (§1) The staphylococci and enterococci were cultured and maintained on Mueller-Hinton Medium (agar and broth) at pH 7.2; they were incubated aerobically at 37° C. for 24 hours.
(§2) A sterile paper disc was impregnated with a sample of the test compound and a minimum of 30 minutes allowed for the solvents to evaporate as far as possible. The disc was then placed on an agar plate onto which the test micro-organism had been inoculated. The plate was then incubated under the conditions described above, following which it was examined visually for signs of bacterial growth. […] The diameter of this zone of “inhibition” was measured using a ProtoCOL™ automated zone sizer (Synbiosis, Cambridge, UK).
(§3) Performance under these conditions can provide a more reliable indication of activity on topical application. For assays conducted using S. aureus strains, the supplements were defibrinated horse blood (5% v/v), lipid (Tween™ 80 at 1% v/v) and sodium chloride (100 mM). For those using Propionibacterium spp. strains, the supplements were lipid (Tween™ 80 at 1% v/v) and sodium chloride (100 mM).
(§4) The following experiments all used S. aureus ATCC 29213 as the test organism. MIC, MBC and DDA assays, as described above, were carried out using a range of different benzoquinones and hydroquinones. Supplemented DDA assays, in the presence of salt, lipid and blood, were also conducted.
(§5) For most DDA assays, 200 μg of each compound was loaded onto each disc.

S. aureus ATCC 29213 [2] = assay: MBC assay; assay type: cell-based, Staphylococcus aureus; conditions: for MBC: Staphylococcus aureus
Procedure: as §1
(§6) This assay, normally carried out after an MIC assay, determines the minimum concentration of a compound that is lethal to the micro-organism being tested.
(§7) These samples were then individually sub-cultured on non-selective agar medium, under the incubation conditions described above. Following incubation they were examined visually for bacterial growth.
as §4

S. aureus ATCC 29213 [3] = assay: Disc diffusion assay (DDA); assay type: cell-based, Staphylococcus aureus; conditions: for zone of inhibition at 200 µg/disc: Staphylococcus aureus
Procedure: as §1, §2
(§8) The area of the zone of inhibition was calculated from the measured zone diameter (D) using the formula π(D/2)^2.
as §5

S. aureus ATCC 29213 [4] = assay: MIC assay; assay type: cell-based, Staphylococcus aureus; conditions: Staphylococcus aureus
Procedure: 1. Staphylococcus aureus—the principal staphylococcal test micro-organism used in these studies was Staphylococcus aureus ATCC 29213. This strain is the one recommended for QC/QA purposes in Minimum Inhibitory Concentration (MIC) assays by the US Clinical and Laboratory Standards Institute (formerly the NCCLS), an FDA-recognised body.
as §1
(§9) This is a standard international method for quantitatively assessing the antimicrobial activity of a compound in a liquid medium. The method used a 96-well microtitre plate, capable of holding about 200 μl of liquid per well. […] The culture media were as described above for the relevant test organisms.
(§10) The wells were inoculated with a liquid suspension of freshly grown micro-organism and incubated under the conditions described above. After incubation, the microtitre plate was examined visually (with the aid of a light box) for cloudiness in each well, which would indicate microbial growth. The MIC value was recorded as the lowest concentration of test compound required to inhibit microbial growth, i.e., the lowest concentration for which the liquid in the well remained clear.
(§11) The assays were conducted in duplicate and included both negative (culture medium only) and positive (culture medium, diluting solvent and inoculum) controls.
as §4

P. acnes NCTC 737 [5] = assay: Supplemented disc diffusion assay; assay type: cell-based, Propionibacterium acnes; conditions: for effect of lipid on antimicrobial activity: P. acnes NCTC 737, activity increases in the presence of lipid; for zone of inhibition at 200 µg/disc: Cutibacterium acnes, NCTC737, 72 h
Procedure: (§12) The Propionibacterium spp organisms were cultured and maintained on Wilkins-Chalgren Anaerobe Medium (agar and broth) at pH 6.0; cultures were incubated anaerobically at 37° C. for 72 hours.
as §2, §3
(§13) MIC, MBC and DDA assays, as described above, were carried out using a range of different benzoquinones and hydroquinones. Supplemented DDA assays, in the presence of salt and lipid, were also conducted.
as §5

P. acnes NCTC 737 [6] = assay: Disc diffusion assay (DDA); assay type: cell-based, Propionibacterium acnes; conditions: Cutibacterium acnes
Procedure: as §12, §2, §8, §5

P. acnes NCTC 737 [7] = assay: MIC assay; assay type: cell-based, Propionibacterium acnes; conditions: for MIC: Cutibacterium acnes, NCTC737, 72 h, pH 6
Procedure: 2. Propionibacterium spp.—the principal propionibacterial strain used in these studies was Propionibacterium acnes NCTC 737.
as §12, §9, §10, §11, §13

P. acnes NCTC 737 [8] = assay: MBC assay; assay type: cell-based, Propionibacterium acnes; conditions: for MBC: Cutibacterium acnes, NCTC737; for MIC/MBC ratio: P. acnes NCTC 737
Procedure: as §12, §6, §7, §13

[9] = S. aureus ATCC 29213, Tween 80 at 1% v/v, 200 μg per disc (thymoquinone 50 μg, 2,6-dimethoxy-p-benzoquinone 100 μg), read-out: DDA + lipid
[10] = S. aureus ATCC 29213, defibrinated horse blood 5% v/v, 200 μg per disc (thymoquinone 50 μg, 2,6-dimethoxy-p-benzoquinone 100 μg), read-out: DDA + blood
[11] = S. aureus ATCC 29213, sodium chloride 100 mM, 200 μg per disc (thymoquinone 50 μg, 2,6-dimethoxy-p-benzoquinone 100 μg), read-out: DDA + salt
[12] = ATCC29213, S. aureus ATCC 29213, unsupplemented agar, 200 μg per disc (thymoquinone 50 μg, 2,6-dimethoxy-p-benzoquinone 100 μg), read-out: DDA (diameter of zone of inhibition)
[13] = ATCC29213, S. aureus ATCC 29213, Mueller-Hinton broth pH 7.2, aerobic, 37° C., 24 hours, read-out: MIC
[14] = NCTC737, P. acnes NCTC 737, unsupplemented agar, 200 μg per disc (2,6-dimethoxy-p-benzoquinone 100 μg), read-out: DDA (diameter of zone of inhibition)
[15] = NCTC737, read-out: DDA (diameter of zone of inhibition)

Row | Structure (SMILES) | zone of inhibition at 200 µg/disc (S. aureus ATCC 29213 [1]; [9]) [mm] | zone of inhibition at 200 µg/disc (S. aureus ATCC 29213 [1]; [10]) [mm] | zone of inhibition at 200 µg/disc (S. aureus ATCC 29213 [1]; [11]) [mm] | MIC/MBC ratio (S. aureus ATCC 29213 [2]) | MBC (S. aureus ATCC 29213 [2]; ATCC29213, read-out: MBC) [µg/mL] | zone of inhibition at 200 µg/disc (S. aureus ATCC 29213 [3]; [12]) [mm] | MIC (S. aureus ATCC 29213 [4]; [13]) [µg/mL] | effect of lipid on antimicrobial activity (P. acnes NCTC 737 [5]) | MIC/MBC ratio (P. acnes NCTC 737 [8]) | other results
1 | Cc1ccc(O)c(O)c1 [4-methylcatechol] | 20 | 0 | 20.9 | 1 | 31.2 (≈ 252 µM) | 18.3 | 31.2 (≈ 252 µM) | – | – | –
2 | O=[N+]([O-])c1ccc(O)c(O)c1 [4-nitrocatechol] | 16.5 | 11.8 | 19 | <0.5 | > 250 | 18.9 | 125 (≈ 806 µM) | – | – | –
3 | CC(C)(C)c1ccc(O)c(O)c1 [4-t-butylcatechol] | 10.9 | 9.65 | 13.1 | 1 | 62.5 (≈ 376 µM) | 12 | 62.5 (≈ 376 µM) | – | – | –
4 | CC1=C(C)C(=O)C(C)=C(C)C1=O [duroquinone, 2,3,5,6-tetramethyl-p-benzoquinone] | – | – | – | 0.5 | – | – | – | – | – | zone of inhibition at 200 µg/disc (S. aureus ATCC 29213 [1]; read-out: DDA + blood): 0 mm; zone of inhibition at 200 µg/disc (S. aureus ATCC 29213 [1]; read-out: DDA + lipid): 16.2 mm; zone of inhibition at 200 µg/disc (S. aureus ATCC 29213 [1]; read-out: DDA + salt): 16.5 mm; MBC (S. aureus ATCC 29213 [2]; ATCC29213): 62.5 µg/mL (≈ 381 µM); zone of inhibition at 200 µg/disc (S. aureus ATCC 29213 [3]; ATCC29213, read-out: DDA (diameter of zone of inhibition)): 13.3 mm; MIC (S. aureus ATCC 29213 [4]; ATCC29213, 24 h, pH 7.2): 31.2 µg/mL (≈ 190 µM)
5 | O=C1C=CC(=O)C=C1 [p-benzoquinone] | – | – | – | – | – | 29.3 | – | potentiated | – | zone of inhibition at 200 µg/disc (P. acnes NCTC 737 [6]; [14]): 24.9 mm
6 | Oc1ccc(O)cc1 [p-hydroquinone] | – | – | – | 1 | – | – | – | – | – | DDA (diameter of zone of inhibition) (S. aureus ATCC 29213 [3]; S. aureus ATCC 29213, unsupplemented agar, 200 μg per disc (thymoquinone 50 μg, 2,6-dimethoxy-p-benzoquinone 100 μg)): 18.94 mm
7 | O=C1C(Cl)=C(Cl)C(=O)C(Cl)=C1Cl [tetrachloro-p-benzoquinone] | – | – | – | – | – | – | – | – | 0.5 | MIC (P. acnes NCTC 737 [7]): 31.2 µg/mL (≈ 127 µM); zone of inhibition at 200 µg/disc (P. acnes NCTC 737 [5]; read-out: DDA + lipid): 12.7 mm; zone of inhibition at 200 µg/disc (P. acnes NCTC 737 [5]; read-out: DDA + salt): 18.9 mm; zone of inhibition at 200 µg/disc (P. acnes NCTC 737 [6]; [15]): 11.6 mm; MBC (P. acnes NCTC 737 [8]): 62.5 µg/mL (≈ 254 µM)
8 | O=C1C(F)=C(F)C(=O)C(F)=C1F [tetrafluoro-p-benzoquinone] | – | – | – | – | – | – | – | potentiated | 0.5 | activity against P. acnes NCTC 737 (in words) (P. acnes NCTC 737 [7]): strongly so; MIC (P. acnes NCTC 737 [7]): 125 µg/mL (≈ 694 µM); zone of inhibition at 200 µg/disc (P. acnes NCTC 737 [5]; read-out: DDA + lipid): 30.8 mm; zone of inhibition at 200 µg/disc (P. acnes NCTC 737 [5]; read-out: DDA + salt): 32.4 mm; zone of inhibition at 200 µg/disc (P. acnes NCTC 737 [6]; [15]): 25.9 mm; MBC (P. acnes NCTC 737 [8]): 250 µg/mL (≈ 1390 µM)
9 | CC1=CC(=O)C(C(C)C)=CC1=O [thymoquinone] | – | – | – | 0.5 | – | 15.6 | – | potentiated | 0.5 | zone of inhibition at 200 µg/disc (P. acnes NCTC 737 [6]; [14]): 27.5 mm
